Experimental data: ChEMBL document CHEMBL1201862, “PubChem BioAssay data set” (2004)
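Five concentrations, 48 hours, 96-well plates. Abbreviation: GI50, concentration required for 50% inhibition of growth.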 Calls of active or inactive are those of the source. No stated cut-off is given here; in the data, active = GI50 up to about 1.1 µM and inactive = higher.

Tests used:
Assay in all cases: NCI tumour cell line growth inhibition, 48 h
NCI-H226 = test system: NCI-H226
SK-MEL-5 = test system: SK-MEL-5
PC-3 = test system: PC-3
HT-29 = test system: HT-29
EKVX = test system: EKVX
SK-OV-3 = test system: SK-OV-3
SN12C = test system: SN12C
TK-10 = test system: TK-10
SW-620 = test system: SW-620
BT-549 = test system: BT-549
RPMI-8226 = test system: RPMI-8226
OVCAR-3 = test system: OVCAR-3
UO-31 = test system: UO-31
A549 = test system: A549
MOLT-4 = test system: MOLT-4
CCRF-CEM = test system: CCRF-CEM
IGROV-1 = test system: IGROV-1
UACC-257 = test system: UACC-257
HCC 2998 = test system: HCC 2998
Hs-578T = test system: Hs-578T

| Compound | GI50 (NCI-H226) | GI50 (SK-MEL-5) | GI50 (PC-3) | GI50 (HT-29) | GI50 (EKVX) | GI50 (SK-OV-3) | GI50 (SN12C) | GI50 (TK-10) | GI50 (SW-620) | GI50 (BT-549) | GI50 (RPMI-8226) | GI50 (OVCAR-3) | GI50 (UO-31) | GI50 (A549) | GI50 (MOLT-4) | GI50 (CCRF-CEM) | GI50 (IGROV-1) | GI50 (UACC-257) | GI50 (HCC 2998) | GI50 (Hs-578T) |
| --- | --- | --- | --- | --- | --- | --- | --- | --- | --- | --- | --- | --- | --- | --- | --- | --- | --- | --- | --- | --- |
| CNCCN[C@@H]1c2cc3c(cc2[C@@H](c2cc(OC)c(O)c(OC)c2)[C@H]2C(=O)OC[C@@H]21)OCO3 | 0.0946 µM (active) | 0.148 µM (active) | 0.649 µM (active) | 0.494 µM (active) | 2.23 µM (inactive) | 0.264 µM (active) | 0.0738 µM (active) | 1.49 µM (inactive) | 0.269 µM (active) | 0.207 µM (active) | 0.0604 µM (active) | 0.968 µM (active) | 1.32 µM (inactive) | 0.0708 µM (active) | 0.0104 µM (active) | 0.0138 µM (active) | 0.418 µM (active) | 0.652 µM (active) | 0.474 µM (active) | – |
| COc1ccc2c(c1)OCc1c-2oc2ccccc2c1=O | > 100 µM (inactive) | 41.1 µM (inactive) | > 100 µM (inactive) | > 100 µM (inactive) | > 100 µM (inactive) | 47.5 µM (inactive) | > 100 µM (inactive) | > 100 µM (inactive) | – | > 100 µM (inactive) | > 100 µM (inactive) | > 100 µM (inactive) | > 100 µM (inactive) | > 100 µM (inactive) | > 100 µM (inactive) | > 100 µM (inactive) | 75.2 µM (inactive) | > 100 µM (inactive) | > 100 µM (inactive) | – |
| CC1(C)CCN2C(=O)C34CCCC3CC21S4 (stereo unspecified) | > 100 µM (inactive) | > 100 µM (inactive) | > 100 µM (inactive) | > 100 µM (inactive) | > 100 µM (inactive) | > 100 µM (inactive) | > 100 µM (inactive) | > 100 µM (inactive) | > 100 µM (inactive) | > 100 µM (inactive) | > 100 µM (inactive) | > 100 µM (inactive) | > 100 µM (inactive) | > 100 µM (inactive) | > 100 µM (inactive) | 78 µM (inactive) | > 100 µM (inactive) | > 100 µM (inactive) | – | > 100 µM (inactive) |
| O=S(=O)(O)c1cc(O)c2c(O)c(/N=N/c3cccc4ccccc34)c(S(=O)(=O)O)cc2c1 | > 100 µM (inactive) | > 100 µM (inactive) | > 100 µM (inactive) | > 100 µM (inactive) | > 100 µM (inactive) | > 100 µM (inactive) | > 100 µM (inactive) | > 100 µM (inactive) | > 100 µM (inactive) | > 100 µM (inactive) | > 100 µM (inactive) | > 100 µM (inactive) | > 100 µM (inactive) | > 100 µM (inactive) | > 100 µM (inactive) | – | > 100 µM (inactive) | > 100 µM (inactive) | – | > 100 µM (inactive) |
| CCCCCc1c(CCCC)c(O)nc2nc(NC(=O)CCCC)ccc12 | > 100 µM (inactive) | > 100 µM (inactive) | > 100 µM (inactive) | – | > 100 µM (inactive) | > 100 µM (inactive) | > 100 µM (inactive) | > 100 µM (inactive) | > 100 µM (inactive) | > 100 µM (inactive) | > 100 µM (inactive) | > 100 µM (inactive) | > 100 µM (inactive) | > 100 µM (inactive) | > 100 µM (inactive) | > 100 µM (inactive) | > 100 µM (inactive) | > 100 µM (inactive) | > 100 µM (inactive) | – |
| O=C1C=C(C2=CC(=O)C(=O)c3ccccc32)c2ccccc2C1=O | 38.5 µM (inactive) | 2.85 µM (inactive) | 15.2 µM (inactive) | 28.6 µM (inactive) | 34.8 µM (inactive) | 44.1 µM (inactive) | 27 µM (inactive) | 7.46 µM (inactive) | 5.01 µM (inactive) | 46.6 µM (inactive) | 6.17 µM (inactive) | 2.58 µM (inactive) | 6.14 µM (inactive) | 35.6 µM (inactive) | 2.44 µM (inactive) | 1.98 µM (inactive) | 28.8 µM (inactive) | 6.24 µM (inactive) | – | 27.7 µM (inactive) |
| CCSc1cc(C(=O)OC)c2n(c1=O)CCCC2 | > 100 µM (inactive) | > 100 µM (inactive) | > 100 µM (inactive) | > 100 µM (inactive) | > 100 µM (inactive) | > 100 µM (inactive) | > 100 µM (inactive) | > 100 µM (inactive) | > 100 µM (inactive) | > 100 µM (inactive) | – | – | > 100 µM (inactive) | > 100 µM (inactive) | > 100 µM (inactive) | > 100 µM (inactive) | > 100 µM (inactive) | > 100 µM (inactive) | – | > 100 µM (inactive) |
| Cc1cc(N(C)C)ccc1/N=N/c1ccc2ncccc2c1 | 31.8 µM (inactive) | 17.2 µM (inactive) | 59.2 µM (inactive) | 35.3 µM (inactive) | 23.6 µM (inactive) | > 100 µM (inactive) | > 100 µM (inactive) | 25.6 µM (inactive) | > 100 µM (inactive) | 35.2 µM (inactive) | 20.2 µM (inactive) | – | > 100 µM (inactive) | > 100 µM (inactive) | 16.8 µM (inactive) | 40 µM (inactive) | 86.3 µM (inactive) | 98.4 µM (inactive) | – | 30.6 µM (inactive) |
| Nc1ncnc2c1ncn2C1OC(CO)C(O)C1N (stereo unspecified) | > 100 µM (inactive) | > 100 µM (inactive) | > 100 µM (inactive) | > 100 µM (inactive) | > 100 µM (inactive) | > 100 µM (inactive) | > 100 µM (inactive) | > 100 µM (inactive) | > 100 µM (inactive) | > 100 µM (inactive) | > 100 µM (inactive) | > 100 µM (inactive) | > 100 µM (inactive) | > 100 µM (inactive) | > 100 µM (inactive) | – | > 100 µM (inactive) | > 100 µM (inactive) | – | 0.08 µM (active) |
| N=C(N)N/N=C/c1nc2n(c1[N+](=O)[O-])CCS2 | 35.8 µM (inactive) | 18.5 µM (inactive) | 31.6 µM (inactive) | 30.2 µM (inactive) | 22.9 µM (inactive) | 45.3 µM (inactive) | 22 µM (inactive) | 40.7 µM (inactive) | 28.4 µM (inactive) | 31.6 µM (inactive) | 52 µM (inactive) | 7.35 µM (inactive) | > 100 µM (inactive) | 26.8 µM (inactive) | 22.2 µM (inactive) | – | 50.2 µM (inactive) | 17.1 µM (inactive) | – | 30.3 µM (inactive) |
| C=C1CCC([N+](=O)[O-])[C@](C)(N=O)CC[C@@H]2C1CC2(C)C (stereo partly specified) | 16 µM (inactive) | 15.3 µM (inactive) | 26.4 µM (inactive) | 19.9 µM (inactive) | 19 µM (inactive) | 57.7 µM (inactive) | 32.4 µM (inactive) | 28.6 µM (inactive) | 16.9 µM (inactive) | 14.4 µM (inactive) | 26 µM (inactive) | 23.6 µM (inactive) | 16.3 µM (inactive) | 18.5 µM (inactive) | 20.5 µM (inactive) | 6.62 µM (inactive) | 24.4 µM (inactive) | 23 µM (inactive) | – | 17.6 µM (inactive) |
